Experimental data as given in patent publication US20090069408A1, “TRICYCLIC COMPOUNDS USEFUL IN TREATING IRON DISORDERS” (XENON PHARMACEUTICALS INC., priority 2007, published 2009).
Counter-ions that a name gives are not always drawn.

Tests used:
[1] = target: T1, DMT1 (Homo sapiens, UniProt P49281); experiment: DMT1 Activity Assay (in vitro); type: cell-based; conditions: read-out: IC50 Activity Level
T1 sequence (P49281 1-568): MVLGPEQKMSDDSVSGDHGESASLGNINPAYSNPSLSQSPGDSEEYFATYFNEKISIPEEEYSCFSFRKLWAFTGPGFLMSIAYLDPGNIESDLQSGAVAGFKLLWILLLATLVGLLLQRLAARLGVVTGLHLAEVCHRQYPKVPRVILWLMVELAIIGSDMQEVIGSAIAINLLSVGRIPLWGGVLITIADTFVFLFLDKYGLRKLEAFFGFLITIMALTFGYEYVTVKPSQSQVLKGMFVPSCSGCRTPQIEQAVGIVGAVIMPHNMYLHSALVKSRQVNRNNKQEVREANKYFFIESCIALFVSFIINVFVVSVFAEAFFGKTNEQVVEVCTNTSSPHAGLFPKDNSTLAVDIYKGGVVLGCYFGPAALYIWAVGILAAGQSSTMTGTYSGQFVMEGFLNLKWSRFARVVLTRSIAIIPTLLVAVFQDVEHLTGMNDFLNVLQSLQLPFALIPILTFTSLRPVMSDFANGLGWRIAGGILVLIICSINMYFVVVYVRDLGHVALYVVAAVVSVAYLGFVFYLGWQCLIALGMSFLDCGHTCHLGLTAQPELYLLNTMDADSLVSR
Excerpt: In particular, identification of the compounds of the invention ability to modulate, preferably to inhibit, DMT1 activity, can be assessed using a variety of in vitro and in vivo assays, for measuring uptake of reduced iron (Fe^2+). One such protocol involves the screening of chemical agents for ability to modulate the activity of DMT1 thereby identifying it as a modulating agent. The in vitro activity of DMT1 can be measured in cell based assays by either directly measuring iron flux (using a radioactively labelled iron ^55Fe) or by measuring the fluorescence of a cell permeable iron fluorophore such as calcein. Stable cell lines overexpressing DMT1 are exposed to ^55Fe or loaded with calcein and then compound is applied. […] Alternatively, in another format electrophysiological techniques can be used to measure the current or iron or other metals traversing the cell membrane with DMT1 in a Xenopus oocyte or other cell based system (Gunshin et al., Nature, 1997, 31; 388(6641):482-8).
This example discloses various in vitro assay for testing and profiling test agents against DMT1 stably expressed in cells of either an endogenous or recombinant origin. These assays can use stable cell lines overexpressing DMT1 or intestinal cells and intestinal tissue expressing endogenous DMT1. DMT1 function could also be assessed in other cell types that express DMT1. Of greatest relevance would be the erythrocytes (e.g. K562 cells) or hepatocytes (e.g. […]).
DMT1 function can be assessed in a number of ways, including monitoring fluorescence changes of an iron fluorophore (e.g. calcein), monitoring uptake of radiolabelled iron (^55Fe or ^59Fe) (Picard et al., J. Biol. Chem., 2000, 275(46):35738-45 and Wetli et al., Chem. Biol. 2006 September; 13(9):965-72), or by assessing the current or transport of iron and other metals into the cells or tissues using standard electrophysiological techniques (Gunshin et al., Nature, 1997, 388(6641):482-8.).
Variations of these assays involve alterations of incubation times, the iron status of the cells and tissues (which may be modulated by chemical chelators or by harvesting from iron deficient animals), the metal cation detected and the pH of the reaction can generally be made by conventional techniques known to those skilled in the art.

melting point [°C] | IC50 [1] [µM] | SMILES
> 220 | – | Cc1ccc2c(oc3c(CSC(=N)N)c(C)ccc32)c1CSC(=N)N (as salt: hydrobromid) [Example 1.3, (3,7-dimethyldibenzo[b,d]furan-4,6-diyl)bis(methylene) dicarbamimidothioate dihydrobromide]
> 220 | – | N=C(N)SCc1cccc2c1oc1c(CSC(=N)N)cc(F)cc12 (as salt: hydrobromid) [Example 1.6, (2-fluorodibenzo[b,d]furan-4,6-diyl)bis(methylene) dicarbamimidothioate dihydrobromide]
> 220 | – | N=C(N)SCc1cc(Br)cc2c1oc1c(CSC(=N)N)cc(Br)cc12 (as salt: hydrobromid) [Example 1.7, (2,8-dibromodibenzo[b,d]furan-4,6-diyl)bis(methylene) dicarbamimidothioate dihydrobromide]
> 250 | – | N=C(N)SCc1cccc2cc3cccc(CSC(=N)N)c3cc12 (as salt: hydrobromid) [Example 1.9, anthracene-1,8-diylbis(methylene) dicarbamimidothioate dihydrobromide]
> 230 | – | N=C(N)SCc1cccc2c1sc1c(CSC(=N)N)cc(F)cc12 (as salt: hydrobromid) [Example 1.10, (2-fluorodibenzo[b,d]thiophene-4,6-diyl)bis(methylene) dicarbamimidothioate dihydrobromide]
> 230 | – | N=C(N)SCc1cccc2c1Oc1c(CSC(=N)N)cccc1S2 (as salt: hydrobromid) [Example 1.12, phenoxathiine-4,6-diylbis(methylene) dicarbamimidothioate dihydrobromide]
228 to 230 | – | N=C(N)SCc1cccc2sc3cccc(CSC(=N)N)c3c12 (as salt: hydrobromid) [Example 1.14, dibenzo[b,d]thiophene-1,9-diylbis(methylene) dicarbamimidothioate dihydrobromide]
– | 0.1 to 1 | N=C(N)SCc1cccc2c1sc1c(CSC(=N)N)cccc12 [Example 1, dibenzo[b,d]thiophene-4,6-diylbis(methylene) dicarbamimidothioate dihydrobromide]
– | 0.1 to 1 | N=C(N)SCc1c(Br)ccc2c1sc1c(CSC(=N)N)c(Br)ccc12 [Example 1.1, (3,7-dibromodibenzo[b,d]thiophene-4,6-diyl)bis(methylene) dicarbamimidothioate dihydrobromide]
– | 0.1 to 1 | N=C(N)SCc1cccc2c1sc1c(CSC(=N)N)c(Br)ccc12 [Example 1.2, (3-bromodibenzo[b,d]thiophene-4,6-diyl)bis(methylene) dicarbamimidothioate dihydrobromide]
– | 0.1 to 1 | Cc1ccc2c(oc3c(CSC(=N)N)c(C)ccc32)c1CSC(=N)N [Example 1.3, (3,7-dimethyldibenzo[b,d]furan-4,6-diyl)bis(methylene) dicarbamimidothioate dihydrobromide]
– | 0.01 to 0.1 | N=C(N)SCc1c(F)ccc2c1oc1c(CSC(=N)N)c(F)ccc12 [Example 1.4, (3,7-difluorodibenzo[b,d]furan-4,6-diyl)bis(methylene) dicarbamimidothioate dihydrobromide]
– | 0.1 to 1 | N=C(N)SCc1c(Cl)ccc2c1oc1c(CSC(=N)N)c(Cl)ccc12 [Example 1.5, (3,7-dichlorodibenzo[b,d]furan-4,6-diyl)bis(methylene) dicarbamimidothioate]
– | 0.01 to 0.1 | N=C(N)SCc1cccc2c1oc1c(CSC(=N)N)cc(F)cc12 [Example 1.6, (2-fluorodibenzo[b,d]furan-4,6-diyl)bis(methylene) dicarbamimidothioate dihydrobromide]
– | 0.01 to 0.1 | N=C(N)SCc1cc(Br)cc2c1oc1c(CSC(=N)N)cc(Br)cc12 [Example 1.7, (2,8-dibromodibenzo[b,d]furan-4,6-diyl)bis(methylene) dicarbamimidothioate dihydrobromide]
– | 0.01 to 0.1 | N=C(N)SCc1cccc2c1oc1c(CSC(=N)N)cccc12 [Example 1.8, dibenzo[b,d]furan-4,6-diylbis(methylene) dicarbamimidothioate dihydrobromide]

melting point [°C] | IC50 [1] [µM] | SMILES
– | 0.1 to 1 | N=C(N)SCc1cccc2cc3cccc(CSC(=N)N)c3cc12 [Example 1.9, anthracene-1,8-diylbis(methylene) dicarbamimidothioate dihydrobromide]
– | 0.1 to 1 | N=C(N)SCc1cccc2c1sc1c(CSC(=N)N)cc(F)cc12 [Example 1.10, (2-fluorodibenzo[b,d]thiophene-4,6-diyl)bis(methylene) dicarbamimidothioate dihydrobromide]
– | 0.01 to 0.1 | N=C(N)SCc1cc(F)cc2c1sc1c(CSC(=N)N)cc(Cl)cc12 [Example 1.11, (2-chloro-8-fluorodibenzo[b,d]thiophene-4,6-diyl)bis(methylene) dicarbamimidothioate dihydrobromide]
– | 0.1 to 1 | N=C(N)SCc1cccc2c1Oc1c(CSC(=N)N)cccc1S2 [Example 1.12, phenoxathiine-4,6-diylbis(methylene) dicarbamimidothioate dihydrobromide]
– | 0.1 to 1 | N=C(N)SCc1c(Br)ccc2c1oc1c(CSC(=N)N)c(Br)ccc12 [Example 1.13, (3,7-dibromodibenzo[b,d]furan-4,6-diyl)bis(methylene) dicarbamimidothioate dihydrobromide]
– | ≥ 1 | N=C(N)SCc1cccc2sc3cccc(CSC(=N)N)c3c12 [Example 1.14, dibenzo[b,d]thiophene-1,9-diylbis(methylene) dicarbamimidothioate dihydrobromide]
– | ≥ 1 | N=C(N)SCc1cccc2c1-c1c(CSC(=N)N)cccc1C2=O [Example 1.15, (9-oxo-9H-fluorene-4,5-diyl)bis(methylene) dicarbamimidothioate dihydrobromide]
– | ≥ 1 | N=C(N)SCc1cccc2c(=O)c3cccc(CSC(=N)N)c3oc12 [Example 1.16, (9-oxo-9H-xanthene-4,5-diyl)bis(methylene) dicarbamimidothioate dihydrobromide]
– | ≥ 1 | Cc1c2cccc(CSC(=N)N)c2nc2c(CSC(=N)N)cccc12 [Example 1.17, (9-methylacridine-4,5-diyl)bis(methylene) dicarbamimidothioate dihydrobromide]
– | 0.1 to 1 | N=C(N)SCc1cccc2cc3cccc(CSC(=N)N)c3nc12 [Example 1.18, acridine-4,5-diylbis(methylene) dicarbamimidothioate dihydrobromide]
– | ≥ 1 | N=C(N)SCc1cccc2c1-c1c(cccc1CSC(=N)N)CSC2 [Example 1.19, (5,7-dihydrodibenzo[c,e]thiepine-1,11-diyl)bis(methylene) dicarbamimidothioate dihydrobromide]
– | 0.1 to 1 | N=C(N)SCc1cccc2c1C(=O)c1c(CSC(=N)N)cccc1-2 [Example 2, (9-oxo-9H-fluorene-1,8-diyl)bis(methylene) dicarbamimidothioate dihydrobromide]
– | 0.01 to 0.1 | N=C(N)SCc1cccc2c1-c1c(CSC(=N)N)cccc1-2 [Example 2.1, biphenylene-1,8-diylbis(methylene)dicarbamimidothioate dihydrobromide]
– | 0.1 to 1 | N=C(N)SCc1ccc(CSC(=N)N)c2c1-c1c(CSC(=N)N)ccc(CSC(=N)N)c1-2 [Example 3, biphenylene-1,4,5,8-tetrayltetrakis(methylene) tetracarbamimidothioate tetrahydrobromide]
– | ≥ 1 | CC(C)(C)c1cc(CSC(=N)N)c2c(c1)C(C)(C)c1cc(C(C)(C)C)cc(CSC(=N)N)c1O2 [Example 4, (2,7-di-tert-butyl-9,9-dimethyl-9H-xanthene-4,5-diyl)bis(methylene) dicarbamimidothioate dihydrobromide]
– | 0.01 to 0.1 | N=C(N)SCc1cc(F)cc2c1-c1c(CSC(=N)N)cc(F)cc1-2 [Example 5, (3,6-difluorobiphenylene-1,8-diyl)bis(methylene) dicarbamimidothioate dihydrobromide]
